{"source": "patent US20130045939A1", "about": "“FATTY ACID MACROLIDE DERIVATIVES AND THEIR USES” (CATABASIS PHARMACEUTICALS, INC., priority 2010, published 2013)", "tested_on": "NF-κB", "assay": "NF-κB luciferase reporter assay in LPS-stimulated RAW 264.7 macrophages", "assay_type": "cell-based", "conditions": "Mus musculus, RAW264.7; RAW 264.7 cells stably expressing 3× NFκB response element luciferase reporter; 2 hour pretreatment, 200 ng/ml LPS for 3 hours; 6 dose point titrations in triplicate", "description": "RAW 264.7 cells stably expressing a 3× NFκB response element-drive luciferase reporter were seeded into 96 well plates in sera-free medium (Optimen) 18 hours prior to compound application. Compounds of the invention were prepared by first making 100 mM stock solutions in EtOH. Stock solutions were then diluted 1:100 in low LPS FBS (Gemini BenchMark 100-106), mixed vigorously and allowed to incubate at room temperature for 30 minutes. 1:2 serial dilutions were then made in FBS supplemented with 1% EtOH, mixed vigorously, and again allowed to incubate at room temperature for 30 minutes before adding to RAW 264.7 reporter cells (final concentrations: 10% FBS, 100 uM highest compound dilution, 0.1% EtOH) for a 2 hour pretreatment prior to stimulation with LPS. Cells were then stimulated with 200 ng/ml LPS or vehicle control for 3 hours in the presence of the compounds of the invention. A set of six vehicles was left unstimulated with LPS in order to measure the assay floor. […] After the 3 h incubation period with LPS, cell viability was measured by reading fluorescence (excitation 550 nm, emission 595 nm) with a Perkin Elmer Victor V plate reader. […] Luciferase activity was measured with the Perkin Elmer Victor V plate reader. NF-κB activity was expressed as a percent of the vehicle control wells (stimulated with LPS). […]", "data": [{"smiles": "CC/C=C\\C/C=C\\C/C=C\\C/C=C\\C/C=C\\C/C=C\\CCC(=O)N1C[C@H](C)C[C@@](C)(O)[C@H](O)[C@@H](C)[C@H](O)[C@@H](C)C(=O)O[C@H](CC)[C@@](C)(O)[C@H](O)[C@H]1C", "note": "[Ia-3, (2R,3S,4R,5R,8R,10R,11R,12S,13S,14R)-6-((4Z,7Z,10Z,13Z,16Z,19Z)-docosa-4,7,10,13,16,19-hexaenoyl)-2-ethyl-3,4,10,11,13-pentahydroxy-3,5,8,10,12,14-hexamethyl-1-oxa-6-azacyclopentadecan-15-one]", "values": [{"measurement": "IC50", "result": 18, "unit": "µM"}]}]}
